Results on 6 compounds are retold here after ChEMBL document CHEMBL5465560, “Selectivity Literature for EUbOPEN Chemogenomic Library” (2024).

Experiment [1] deals with T1, Serine/threonine-protein kinase TBK1 (Homo sapiens) (UniProt Q9UHD2).
T1 sequence (whole entry): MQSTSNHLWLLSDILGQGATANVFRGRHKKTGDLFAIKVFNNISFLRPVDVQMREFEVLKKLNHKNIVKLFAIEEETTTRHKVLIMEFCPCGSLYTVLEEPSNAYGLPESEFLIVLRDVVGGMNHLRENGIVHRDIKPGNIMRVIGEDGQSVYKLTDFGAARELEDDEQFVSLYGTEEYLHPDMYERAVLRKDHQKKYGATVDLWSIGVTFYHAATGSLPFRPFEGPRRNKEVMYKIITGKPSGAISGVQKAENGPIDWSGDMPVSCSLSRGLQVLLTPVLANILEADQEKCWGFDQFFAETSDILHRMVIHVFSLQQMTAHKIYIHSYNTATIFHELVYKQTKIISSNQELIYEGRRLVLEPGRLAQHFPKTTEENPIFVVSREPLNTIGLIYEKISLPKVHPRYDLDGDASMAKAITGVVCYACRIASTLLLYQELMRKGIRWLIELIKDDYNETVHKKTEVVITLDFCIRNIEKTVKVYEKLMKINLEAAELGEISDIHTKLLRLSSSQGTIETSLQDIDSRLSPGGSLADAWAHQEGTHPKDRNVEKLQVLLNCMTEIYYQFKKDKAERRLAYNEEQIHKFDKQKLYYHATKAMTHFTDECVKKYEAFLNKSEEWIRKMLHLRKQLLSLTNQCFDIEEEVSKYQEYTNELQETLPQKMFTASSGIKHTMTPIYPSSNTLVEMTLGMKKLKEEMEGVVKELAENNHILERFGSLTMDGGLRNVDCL
The experiment can be described thus: Selectivity interaction (KinomeScan (DiscoverX)) EUB0001619a TBK1. The conditions noted are these: at 1 µM.

Experiment [2] addresses Mitogen-activated protein kinase kinase kinase 11 (Homo sapiens) (UniProt Q16584). The experiment can be described thus: Selectivity interaction (KinomeScan (DiscoverX)) EUB0001619a MAP3K11. The conditions noted are these: at 1 µM.
Experiment [3] deals with T2, Serine/threonine-protein kinase 17A (Homo sapiens) (UniProt Q9UEE5).
T2 sequence (whole entry): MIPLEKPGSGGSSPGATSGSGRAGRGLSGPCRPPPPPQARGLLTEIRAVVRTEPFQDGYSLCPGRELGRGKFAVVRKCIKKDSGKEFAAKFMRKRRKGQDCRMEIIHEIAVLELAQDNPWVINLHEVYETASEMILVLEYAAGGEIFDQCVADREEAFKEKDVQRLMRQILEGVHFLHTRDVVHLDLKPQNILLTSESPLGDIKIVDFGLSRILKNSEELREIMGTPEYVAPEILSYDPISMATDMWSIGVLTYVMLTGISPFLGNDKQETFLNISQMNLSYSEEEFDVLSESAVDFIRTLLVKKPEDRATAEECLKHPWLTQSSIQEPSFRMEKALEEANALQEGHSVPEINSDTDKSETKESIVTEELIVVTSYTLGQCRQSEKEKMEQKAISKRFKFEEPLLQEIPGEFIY
The experiment can be described thus: Selectivity interaction (KinomeScan (DiscoverX)) EUB0000666a STK17A. The note with it: at 10 µM.

In experiment [4] the target is T3, Serine/threonine-protein kinase D2 (Homo sapiens) (UniProt Q9BZL6).
T3 sequence (whole entry): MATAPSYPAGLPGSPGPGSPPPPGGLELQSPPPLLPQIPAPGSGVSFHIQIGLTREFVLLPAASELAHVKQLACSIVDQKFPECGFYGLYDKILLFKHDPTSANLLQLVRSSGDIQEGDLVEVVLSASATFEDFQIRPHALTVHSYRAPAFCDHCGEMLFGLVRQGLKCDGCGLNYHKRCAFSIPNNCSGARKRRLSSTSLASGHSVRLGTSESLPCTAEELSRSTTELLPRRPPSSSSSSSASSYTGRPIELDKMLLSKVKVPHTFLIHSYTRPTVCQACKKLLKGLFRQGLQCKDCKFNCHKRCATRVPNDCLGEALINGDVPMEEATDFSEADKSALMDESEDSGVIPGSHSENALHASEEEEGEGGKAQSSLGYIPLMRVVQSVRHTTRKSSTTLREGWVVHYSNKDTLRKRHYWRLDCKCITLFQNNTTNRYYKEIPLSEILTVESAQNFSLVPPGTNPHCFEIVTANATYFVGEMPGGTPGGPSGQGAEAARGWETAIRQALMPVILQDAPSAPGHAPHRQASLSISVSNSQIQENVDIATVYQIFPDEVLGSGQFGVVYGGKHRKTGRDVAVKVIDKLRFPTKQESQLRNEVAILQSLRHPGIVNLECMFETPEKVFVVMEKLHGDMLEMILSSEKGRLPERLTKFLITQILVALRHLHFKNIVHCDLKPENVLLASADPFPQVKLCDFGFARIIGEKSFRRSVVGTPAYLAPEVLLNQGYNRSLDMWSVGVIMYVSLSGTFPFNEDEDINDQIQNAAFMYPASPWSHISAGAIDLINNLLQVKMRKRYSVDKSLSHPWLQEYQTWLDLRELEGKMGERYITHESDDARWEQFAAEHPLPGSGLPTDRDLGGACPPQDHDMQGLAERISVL
The experiment can be described thus: Selectivity interaction (SelectScreen profiling (Invitrogen)) EUB0000607a PRKD2. The conditions noted are these: at 2 µM.

The target of experiment [5] is Ribosomal protein S6 kinase alpha-2 (Homo sapiens) (UniProt Q15349). The experiment can be described thus: Selectivity interaction (KinomeScan (DiscoverX)) EUB0001049a RPS6KA2. The note with it: at 1 µM.
Chain of Ribosomal protein S6 kinase alpha-2 (Homo sapiens) (Q15349 whole entry): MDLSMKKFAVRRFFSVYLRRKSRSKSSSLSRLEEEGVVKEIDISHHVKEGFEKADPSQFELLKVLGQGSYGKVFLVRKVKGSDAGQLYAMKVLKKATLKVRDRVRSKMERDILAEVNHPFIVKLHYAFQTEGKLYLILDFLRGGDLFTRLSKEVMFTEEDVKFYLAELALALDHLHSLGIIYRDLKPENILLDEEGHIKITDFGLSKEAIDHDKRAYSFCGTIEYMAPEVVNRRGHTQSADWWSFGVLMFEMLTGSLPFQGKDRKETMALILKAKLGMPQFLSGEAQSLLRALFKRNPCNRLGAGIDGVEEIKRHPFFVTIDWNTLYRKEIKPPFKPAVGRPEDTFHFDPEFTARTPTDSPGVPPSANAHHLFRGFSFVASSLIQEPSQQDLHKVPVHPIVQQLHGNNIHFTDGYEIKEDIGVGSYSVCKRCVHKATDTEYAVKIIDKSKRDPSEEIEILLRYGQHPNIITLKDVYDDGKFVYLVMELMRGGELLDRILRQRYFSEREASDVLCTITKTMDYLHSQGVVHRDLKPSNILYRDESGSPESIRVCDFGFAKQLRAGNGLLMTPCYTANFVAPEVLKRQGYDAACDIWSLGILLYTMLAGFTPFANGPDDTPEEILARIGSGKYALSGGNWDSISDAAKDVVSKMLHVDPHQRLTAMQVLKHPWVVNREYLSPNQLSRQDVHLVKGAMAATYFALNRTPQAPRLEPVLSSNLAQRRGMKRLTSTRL
Experiment [6] deals with T4, Cyclin-dependent kinase-like 2 (Homo sapiens) (UniProt Q92772).
T4 sequence (whole entry): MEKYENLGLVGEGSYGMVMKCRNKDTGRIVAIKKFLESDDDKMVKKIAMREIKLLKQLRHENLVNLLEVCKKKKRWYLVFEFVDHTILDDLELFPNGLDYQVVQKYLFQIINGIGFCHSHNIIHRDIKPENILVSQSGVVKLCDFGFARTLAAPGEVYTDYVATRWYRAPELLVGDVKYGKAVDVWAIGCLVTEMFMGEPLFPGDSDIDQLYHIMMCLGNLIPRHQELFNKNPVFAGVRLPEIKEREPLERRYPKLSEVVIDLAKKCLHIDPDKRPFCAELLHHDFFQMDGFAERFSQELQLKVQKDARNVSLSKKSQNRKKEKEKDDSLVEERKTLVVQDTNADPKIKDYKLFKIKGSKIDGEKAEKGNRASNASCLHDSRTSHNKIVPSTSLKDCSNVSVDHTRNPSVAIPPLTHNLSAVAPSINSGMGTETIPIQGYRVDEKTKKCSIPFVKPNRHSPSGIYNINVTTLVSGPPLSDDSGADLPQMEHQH
The experiment can be described thus: Selectivity interaction (KinomeScan (DiscoverX)) EUB0001049a CDKL2. The note with it: at 1 µM.

The target of experiment [7] is Receptor tyrosine-protein kinase erbB-3 (Homo sapiens) (UniProt P21860). The experiment can be described thus: Selectivity interaction (KinomeScan (DiscoverX)) EUB0001049a ERBB3. The conditions noted are these: at 1 µM.
Chain of Receptor tyrosine-protein kinase erbB-3 (Homo sapiens) (P21860 whole entry): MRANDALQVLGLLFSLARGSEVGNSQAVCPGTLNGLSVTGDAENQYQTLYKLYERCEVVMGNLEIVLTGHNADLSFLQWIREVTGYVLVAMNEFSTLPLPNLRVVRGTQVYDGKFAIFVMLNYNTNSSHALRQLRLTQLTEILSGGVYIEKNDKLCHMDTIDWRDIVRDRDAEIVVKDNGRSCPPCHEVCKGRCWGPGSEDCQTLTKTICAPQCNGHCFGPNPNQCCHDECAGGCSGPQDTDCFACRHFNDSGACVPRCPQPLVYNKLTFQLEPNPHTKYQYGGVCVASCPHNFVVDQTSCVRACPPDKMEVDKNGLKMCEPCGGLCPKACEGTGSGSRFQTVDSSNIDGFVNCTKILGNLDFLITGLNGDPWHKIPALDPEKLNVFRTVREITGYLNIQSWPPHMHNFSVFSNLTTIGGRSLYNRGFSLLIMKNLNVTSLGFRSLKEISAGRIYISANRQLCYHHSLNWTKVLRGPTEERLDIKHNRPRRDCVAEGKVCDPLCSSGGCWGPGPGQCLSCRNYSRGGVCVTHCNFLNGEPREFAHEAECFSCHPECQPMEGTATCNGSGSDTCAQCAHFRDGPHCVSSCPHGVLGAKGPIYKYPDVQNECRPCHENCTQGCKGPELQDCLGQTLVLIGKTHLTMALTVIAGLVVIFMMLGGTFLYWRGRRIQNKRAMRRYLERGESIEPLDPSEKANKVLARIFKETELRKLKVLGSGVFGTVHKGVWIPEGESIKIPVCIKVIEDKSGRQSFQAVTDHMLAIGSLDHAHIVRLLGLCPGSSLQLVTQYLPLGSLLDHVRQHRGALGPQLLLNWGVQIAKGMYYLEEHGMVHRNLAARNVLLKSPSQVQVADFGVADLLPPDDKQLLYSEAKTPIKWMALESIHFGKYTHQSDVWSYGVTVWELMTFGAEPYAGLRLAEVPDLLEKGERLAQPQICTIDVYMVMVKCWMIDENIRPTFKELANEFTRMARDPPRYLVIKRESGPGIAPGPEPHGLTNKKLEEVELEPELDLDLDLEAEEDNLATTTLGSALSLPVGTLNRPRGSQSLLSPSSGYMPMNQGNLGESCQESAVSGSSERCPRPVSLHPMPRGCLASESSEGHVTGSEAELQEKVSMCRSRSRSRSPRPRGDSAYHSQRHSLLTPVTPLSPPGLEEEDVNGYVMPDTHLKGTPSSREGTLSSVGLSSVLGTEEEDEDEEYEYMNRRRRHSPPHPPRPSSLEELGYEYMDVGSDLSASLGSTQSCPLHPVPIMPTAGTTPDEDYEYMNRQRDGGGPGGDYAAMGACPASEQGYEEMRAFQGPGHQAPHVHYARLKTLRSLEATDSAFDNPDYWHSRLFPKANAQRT
The target in experiment [8] is Fibroblast growth factor receptor 2 (Homo sapiens) (UniProt P21802). The experiment can be described thus: Selectivity interaction (KinomeScan (DiscoverX)) EUB0000655a FGFR2. The conditions noted are these: at 10 µM.
Chain of Fibroblast growth factor receptor 2 (Homo sapiens) (P21802 22-821 limits assumed): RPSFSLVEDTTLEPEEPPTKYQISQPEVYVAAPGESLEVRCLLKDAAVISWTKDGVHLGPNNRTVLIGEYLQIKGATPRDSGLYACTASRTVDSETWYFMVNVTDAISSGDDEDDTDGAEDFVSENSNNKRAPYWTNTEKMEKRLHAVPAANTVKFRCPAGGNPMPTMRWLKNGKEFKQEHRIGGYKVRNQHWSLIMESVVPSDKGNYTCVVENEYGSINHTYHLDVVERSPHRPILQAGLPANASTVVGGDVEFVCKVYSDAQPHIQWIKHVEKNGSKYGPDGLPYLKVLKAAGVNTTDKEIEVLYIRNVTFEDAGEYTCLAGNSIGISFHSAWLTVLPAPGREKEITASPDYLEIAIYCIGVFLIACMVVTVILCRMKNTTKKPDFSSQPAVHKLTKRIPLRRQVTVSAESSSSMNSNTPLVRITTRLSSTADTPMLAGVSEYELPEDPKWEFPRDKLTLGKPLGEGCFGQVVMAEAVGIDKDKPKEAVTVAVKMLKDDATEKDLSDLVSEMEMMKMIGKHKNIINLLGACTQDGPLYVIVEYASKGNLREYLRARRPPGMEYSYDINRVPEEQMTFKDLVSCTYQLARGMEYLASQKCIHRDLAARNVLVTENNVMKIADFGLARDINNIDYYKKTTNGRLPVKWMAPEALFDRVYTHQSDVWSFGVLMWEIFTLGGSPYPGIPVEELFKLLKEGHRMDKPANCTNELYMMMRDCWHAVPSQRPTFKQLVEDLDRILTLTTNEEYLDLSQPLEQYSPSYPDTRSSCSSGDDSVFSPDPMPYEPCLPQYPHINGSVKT
Experiment [9] has as its target Cyclin-dependent kinase 7 (Homo sapiens, UniProt P50613). The experiment can be described thus: Selectivity interaction (KinomeScan (DiscoverX)) EUB0000092b CDK7. The conditions noted are these: at 10 µM.

Chain of Cyclin-dependent kinase 7 (P50613 whole entry): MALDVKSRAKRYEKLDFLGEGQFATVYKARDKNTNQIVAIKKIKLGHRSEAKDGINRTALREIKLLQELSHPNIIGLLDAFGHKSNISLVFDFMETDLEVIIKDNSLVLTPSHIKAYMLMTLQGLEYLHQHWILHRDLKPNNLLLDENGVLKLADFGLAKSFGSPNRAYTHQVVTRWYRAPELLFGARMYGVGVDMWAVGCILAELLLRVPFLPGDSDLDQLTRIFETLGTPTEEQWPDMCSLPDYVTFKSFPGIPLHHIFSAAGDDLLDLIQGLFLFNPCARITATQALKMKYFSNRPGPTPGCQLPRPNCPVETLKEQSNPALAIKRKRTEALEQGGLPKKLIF
Chain of Mitogen-activated protein kinase kinase kinase 11 (Homo sapiens) (Q16584 whole entry, looked up): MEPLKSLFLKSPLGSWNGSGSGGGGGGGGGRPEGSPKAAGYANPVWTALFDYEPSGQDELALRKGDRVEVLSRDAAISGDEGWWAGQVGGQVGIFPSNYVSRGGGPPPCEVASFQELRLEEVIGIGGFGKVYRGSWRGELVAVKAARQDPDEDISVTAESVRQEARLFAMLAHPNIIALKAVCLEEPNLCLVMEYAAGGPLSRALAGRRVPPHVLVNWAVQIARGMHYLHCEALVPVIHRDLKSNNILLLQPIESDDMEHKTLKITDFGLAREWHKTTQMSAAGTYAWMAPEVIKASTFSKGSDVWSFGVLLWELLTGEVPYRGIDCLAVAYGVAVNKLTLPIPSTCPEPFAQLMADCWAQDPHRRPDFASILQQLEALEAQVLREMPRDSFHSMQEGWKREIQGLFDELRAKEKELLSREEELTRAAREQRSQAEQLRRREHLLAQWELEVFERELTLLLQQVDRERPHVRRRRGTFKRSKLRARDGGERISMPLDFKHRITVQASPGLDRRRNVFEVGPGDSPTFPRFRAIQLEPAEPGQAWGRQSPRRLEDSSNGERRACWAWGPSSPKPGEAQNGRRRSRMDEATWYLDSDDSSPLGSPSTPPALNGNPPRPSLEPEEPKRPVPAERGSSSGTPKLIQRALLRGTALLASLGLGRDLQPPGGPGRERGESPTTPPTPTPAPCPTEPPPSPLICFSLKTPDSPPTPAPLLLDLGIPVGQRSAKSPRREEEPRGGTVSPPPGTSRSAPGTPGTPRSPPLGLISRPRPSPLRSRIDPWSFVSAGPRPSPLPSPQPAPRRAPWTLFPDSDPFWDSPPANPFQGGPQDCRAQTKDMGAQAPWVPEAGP

For the compound `N#Cc1cccc(-c2c[nH]c3ncnc(N4CCOCC4)c23)c1`, the % of control in [1] and in experiment [2] was 100% throughout.
As to `O=C(NOC[C@H](O)CO)c1ccc(F)c(F)c1Nc1ccc(I)cc1F`, the % of control in experiment [3] came to 100%.
Compound `CNC(=O)Nc1ccc(-c2nc(N3CC4CCC(C3)O4)c3cnn(C4CCC5(CC4)OCCO5)c3n2)cc1` had a % of inhibition in experiment [4] of 1%.
On to `COc1cc(Nc2nc(C)cc(-c3cnn4nc(OC)ccc34)n2)cc(C(F)(F)F)c1`, for which the % of control stood at 90% in experiment [5], 100% in experiment [6] and 100% in experiment [7].
In experiment [8], `CN(C)CCOc1ccc(-c2nc(-c3ccncc3)c(-c3ccc4c(c3)CC/C4=N\O)[nH]2)cc1` showed a % of control of 100%.
For the compound `CCC(=O)N1CCN(c2ccc(-n3c(=O)ccc4cnc5ccc(-c6cnc7ccccc7c6)cc5c43)cc2C(F)(F)F)CC1`, in experiment [9], the % of control was determined as 57%.
